Patent US20220160812A1, “A PHARMACEUTICALLY ACTIVE SUBSTANCE” (Cytopharma GmbH, priority 2019, published 2022)

Columns and labels:
[1] = test system: A375 melanoma cells; experiment: subG1 cell cycle FACS apoptosis assay, A375 melanoma cells; type: cell-based, human; conditions: A375, Protocol A
Procedure: (§1) To transfer adherent cells (A375 and BxPC-3 cells) after culture, cells are washed twice with PBS. To detach the cells, the enzyme biotase is used according to the manufacturer's instructions. For this purpose, after washing with PBS, the cells are mixed with biotase (5 ml of biotase solution per 75 cm^2 surface of the cell culture bottles) and incubated for 5 min at 37 degrees Celsius, and the biotase is separated by centrifugation. Cells cultivated in suspension (MEC-1 and lymphocytes) were transferred by dilution. The cells are suspended in culture medium and counted, each time 1.5×10^5 cells/cm^2 are seeded in 48-well plates and cultured for between 1.5 and 24 hours at 37 degrees Celsius, 5% CO2. Peptides are pre-diluted from stock solution with culture medium and 200 μl of peptide solution added so that final concentrations of 30 to 500 μM peptide are present in at most 1% (v/v) DMSO. As control solutions, culture medium without peptide (DMSO-containing) in culture medium or etoposide solution is added. After incubating the cells for several hours, the cell supernatant is transferred to a FACS tube for each batch and, after washing the cells with PBS, the wash solution is added. Then the cells are incubated with 200 μl of biotase solution for 10 min, 37° C., the cells with the biotase are also transferred to the FACS tube and the cells are collected by centrifugation for 5 min. The cell pellet is suspended in 500 μl of serum-free culture medium, then 1.5 ml of cold 80% ethanol (ethanol/PBS-80/20, v/v, stored at −20° C.) is added, the FACS tubes sealed and stored at −20 degrees Celsius for 15 to 18 h. Thereafter, the cells are centrifuged for 5 minutes at 120 g, suspended after removal of the supernatant in 2 ml PBS and incubated at 37 degrees Celsius for 30 minutes. After re-centrifugation, the cells are suspended in 0.5 ml DAPI solution and incubated for 15 min at 20 degrees Celsius in the dark. Thereafter, the cells are stored dark for a maximum of four hours in an ice bath, followed by the FACS analysis.
(§2) The adherent cells (A375 and BxPC-3 cells and MDA-MB-231, respectively) are seeded 24 hours before induction in 6-well plates in culture medium. For this, the cells are washed with PBS, then incubated with trypsin/EDTA solution at 37 degrees Celsius and suspended in culture medium. The 6-well plates are loaded with 1×10^5 cells/cm^2 in culture medium and the cells incubated for 24 hours until induction with the peptides in the incubator. For induction, the peptides are diluted in fresh culture medium. As control solutions, culture medium without peptide (DMSO-containing) in culture medium or etoposide solution is added. The cells are washed with PBS. Thereafter the peptide solution in culture medium is added to the cells. After incubation in the incubator (37° C., 5% CO2) between 1.5 and 24 hours, the cell supernatant is transferred to 15 ml centrifuge tubes, the cells are washed with 0.75 ml PBS and then with 0.5 ml versene solution. Both washings are combined with the cell supernatant. The cells are then added with 0.5 ml of trypsin/EDTA solution and incubated at about 37° C. for at most 10 minutes until the cells detached. The cell suspension is combined with cell supernatant and washings and centrifuged at about 130 g for about 10 minutes. After removing the supernatant, the cells are suspended in 400 μl of cell culture medium (without serum) and mixed with 1.2 ml of 80% ethanol/20% PBS (v/v) and incubated for 1 to 7 days at −20° C. For analysis, the cells are centrifuged at 130 g for 10 min, suspended in 2 ml PBS, and centrifuged again for 5 min. The cells are suspended in 700 μl PI buffer and incubated for 10 min at 37° C. in the dark. Subsequently, the cells are stored dark for a maximum of four hours in an ice bath, then the FACS analysis is performed.
The proportion of cells which have died was determined by two methods, both rely on the analysis of cells by flow cytometry, often called FACS analysis. […]

[2] = test system: BxPC-3 human pancreatic cancer cells; experiment: subG1 cell cycle FACS apoptosis assay, BxPC-3 cells; type: cell-based; conditions: BxPC-3, Protocol A, about 24 hours, FIG. 10
Procedure: as §1
as §2, with “performed. […]” for “performed.”

Substance	apoptosis efficiency (subG1), comparison in words ([1]; 200 μM, about 24 hours, FIG. 4)	apoptosis efficiency (subG1), comparison in words ([2]; 50 μM)	apoptosis efficiency (subG1), comparison in words ([2]; 100 μM)	apoptosis level (subG1), comparison in words ([1]; 100 μM, FIG. 6)	apoptosis efficiency (subG1) in view of Peptide SEQ C1 ([1]; 100 μM, about 24 hours, FIG. 4)	apoptosis level (subG1) ([1]; 200 μM and above, incubation about 3 hours, FIG. 6)	apoptosis efficiency (subG1) in view of Peptide SEQ C1 ([1]; 200 μM, about 24 hours, FIG. 4)	apoptosis efficiency (subG1), comparison in words ([1]; 200 μM, incubation 1.5 h, 3 h and 6 h, FIG. 6)	apoptosis efficiency (subG1), comparison in words ([1]; 300 μM, all incubation times (1.5, 3, 6, 24 h), FIG. 6)	apoptosis efficiency (subG1), comparison in words ([1]; any concentration (50, 100, 200 μM), about 24 hours, FIG. 4)	apoptosis efficiency (subG1), comparison in words ([2]; 200 μM)	apoptosis efficiency (subG1) in view of Peptide SEQ C1 ([2]; any concentration (50, 100, 200 μM))	apoptosis efficiency (subG1), comparison in words ([1]; 200 μM, incubation 24 h, FIG. 6)
k-s-q-t-v-k-k-w-m-v-v-y-f-r-k [SEQID No 29]	higher efficiency at 200 μM in view of Peptide SEQID No 37	slight improvement over peptides SEQID NO 27 and SEQID NO 37	higher efficiency at 100 μM in view of Peptides SEQID NO 27, SEQID NO 37 and SEQID NO 36	–	–	–	–	–	–	–	–	–	–
k-s-q-t-v-q-k-w-m-v-v-y-f-r-k [SEQID No 36]	–	slight improvement over peptides SEQID NO 27 and SEQID NO 37	–	slightly improved apoptosis level in view of peptide SEQID NO 27	at least fivefold	high apoptosis level	at least tenfold	improvement over Peptides SEQID NO 37 and SEQID NO 27	improvement with regard to all incubation times over Peptides SEQID NO 37 and SEQID NO 27	clear improvement over Peptides SEQID NO 37 and SEQID NO 29 at any concentration	clear improvement over peptides SEQID NO 27 and SEQID NO 29	at least fourfold	–
s-q-t-v-q-k-w-m-v-v-y-f-r-k [SEQID No 37]	–	–	–	slightly improved apoptosis level in view of peptide SEQID NO 27	–	–	–	–	–	–	clear improvement over peptides SEQID NO 27 and SEQID NO 29	–	best results
